# Patent US11085081B2, “Methods and materials for determining pain sensitivity and predicting and treating related disorders” (The University of North Carolina at Chapel Hill, priority 2004, dated 2021)
# Entries after “also recorded” stand apart in the source; their conditions may differ.
# Assays:
# TNFα, IL-1β, and IL-6 = assay: In vivo plasma cytokine measurement (ELISA); set-up: species or system rat; conditions: rats; for plasma levels of IL-1β: OR486 30 mg/kg i.p. or 3% carrageenan i.pl.; for plasma levels of IL-1β / plasma levels of IL-6 / plasma levels of TNFα: relative to vehicle; for plasma levels of IL-6 / plasma levels of TNFα: OR486 or RO41-0960 30 mg/kg i.p., or 3% carrageenan i.pl.
# Experimental: Blood was centrifuged and plasma separated from red blood cells. Plasma IL-6 was measured in duplicate using enzyme-linked immunosorbant assay (ELISA) kits from R&D systems (Minneapolis, Minn., U.S.A.). Plasma TNFα and IL-1β were measured in duplicate by the University of North Carolina Proteomics Ilmmunotechnologies Core using ELISA kits from Biosource (Camarillo, Calif., U.S.A.) and the National Institute for Biological Standards and Control (UK), respectively.
# Sprague-Dawley rats = assay: Mechanical and thermal pain behavior testing (von Frey monofilaments, radiant heat); type: in vivo, rat; conditions: for paw withdrawal frequency to mechanical stimuli (25 g monofilament) / paw withdrawal latency to thermal stimuli / paw withdrawal threshold to mechanical stimuli: OR486 or RO41-0960 30 mg/kg i.p., or 3% carrageenan i.pl.; for paw withdrawal frequency to mechanical stimuli (25 g monofilament) / paw withdrawal latency to thermal stimuli / paw withdrawal threshold to mechanical stimuli / paw withdrawal frequency to mechanical stimuli, antagonist in the absence of OR486 / paw withdrawal latency to radiant heat, antagonist in the absence of OR486 / paw withdrawal threshold to mechanical stimuli, antagonist in the absence of OR486: relative to vehicle; for blockade of OR486-induced hyperalgesia / heightened pain sensitivity: antagonist i.p. prior to OR486; for paw withdrawal frequency to mechanical stimuli, antagonist in the absence of OR486 / paw withdrawal latency to radiant heat, antagonist in the absence of OR486 / paw withdrawal threshold to mechanical stimuli, antagonist in the absence of OR486: i.p. 10 min prior to vehicle, phentolamine 3, propranolol 3, SCH23390 0.2, spiperone 0.2, betaxolol 1.0, ICI118,551 0.5, SR59230A 5 mg/kg
# Experimental: Rats were placed in plexiglass cages positioned over an elevated perforated stainless steel platform and habituated to the environment for 15-25 min prior to testing. Paw withdrawal threshold to punctate mechanical stimulation was assessed using the up-down method of Chaplan et al. (1994). A series of nine calibrated filaments (with bending forces of 0.40, 0.68, 1.1, 2.1, 3.4, 5.7, 8.4, 13.2, and 25.0 g; Sammons Preston Rolyan, Bolingbrook, Ill., U.S.A.) with approximately equal logarithmic spacing between stimuli (Mean±SEM: 0.232±0.04 units) were presented to the hind paw in successive order, whether ascending or descending. Filaments were positioned in contact with the hind paw for a duration of 3 s or until a withdrawal response occurred. Testing was initiated with the middle hair of the series (3.4 g). In the absence of a paw withdrawal response, an incrementally stronger filament was presented and in the event of a paw withdrawal, an incrementally weaker filament was presented. After the initial response threshold was crossed, this procedure was repeated four times in order to obtain a total of six responses in the immediate vicinity of the threshold. The presence of paw withdrawal (X) and absence of withdrawal (O) was noted together with the terminal filament used in the series of six responses. The 50% g threshold=(10^[Xf+kδ])/10,000, where Xf=value (in log units) of the final von Frey hair used; k=tabular value of pattern of positive (X) and negative (O) responses, and δ=mean difference (in log units) between stimuli.
# Immediately following determination of the response threshold, paw withdrawal frequency (%) to punctate mechanical stimulation was assessed. A von Frey monofilament with a calibrated bending force of 25 g was presented to the hind paw 10 times for a duration of 1 s with an interstimulus interval of approximately 1 s. Mechanical hyperalgesia was defined as an increase in the percentage frequency ([# of paw withdrawals/10]×100) of paw withdrawal evoked by stimulation with von Frey monofilaments.
# Thermal hyperalgesia was evaluated using the radiant heat method of Hargreaves et al. (1988) in the same animals evaluated for responsiveness to von Frey monofilaments. Radiant heat was presented through the floor of a finely perforated stainless steel platform to the midplantar region of the hind paw.
# After establishing stable baseline responsiveness to mechanical and thermal stimuli, separate groups of rats received intraperitoneal injections of OR486 (30 mg/kg i.p.; N=8) or vehicle (N=8) one hour prior to behavioral testing. Responsiveness to von Frey filaments was reassessed at 30 min intervals for 2 hours. Paw withdrawal latencies to radiant heat were subsequently assessed at 2.5 hours into the testing procedure. Twenty-four hours later, baseline responsiveness to mechanical and thermal stimuli was reestablished. Animals received OR486 (30 mg/kg i.p.) or vehicle (consistent with the previous day). Thirty minutes following administration of drug or vehicle, separate groups of rats received intraplantar carrageenan (N=4 per group) or saline (N=4 per group). Responsiveness to von Frey filaments was reassessed at 30 min intervals for 2 hours following the induction of inflammation. Paw withdrawal latencies to radiant heat were subsequently assessed at 2.5 hours post carrageenan.
# Rats were handled and habituated to the testing environment 2-3 days prior to establishing baseline responsiveness. On test days, rats were placed in plexiglass cages positioned over an elevated perforated stainless steel platform and habituated to the environment for 15-20 minutes prior to testing. Paw withdrawal threshold to punctate mechanical stimulation was assessed using the up-down method of Chaplan (Chaplan et al. (1994)). […]
# 3T3-L1 adipocytes = assay: In vitro cytokine measurement (real time PCR of transcripts) in adipocytes; type: cell-based, mouse; conditions: salmeterol 0.5 μM or CL316243 0.3 μM, 1 hr treatment; normalized to GAPDH
# Experimental: Cell growth media consisted of Dulbecco's modified Eagle's medium supplemented with 10% heat-inactivated fetal bovine serum (Sigma, St. Louis, Mo., U.S.A.) and 1× penicillin-streptomycin (Gibco, Carlsbad, Calif., U.S.A.). Cells were maintained in a humidified atmosphere of 95% air and 5% CO2.
# Two days after reaching confluence in growth media, adipogenesis was induced by incubating cells in growth media containing 0.25 μM dexamethasone (Sigma), 0.5 mM IBMX (Sigma), and 1 μM insulin (Sigma). After an additional 2 days in growth media containing 1 μM insulin, cells were grown for 6-8 days in normal growth media.
# Total RNA was isolated using the RNeasy Mini Kit (Qiagen, Valencia, Calif., U.S.A.). RNA was then treated with 2 units of DNase I (Ambion, Austin, Tex., U.S.A.) at 37° C. for 30 min. Reverse transcription was performed according to the manufacturer's instructions. Briefly, the reverse transcription reaction mixture consisted of 1 μg DNase 1-treated RNA, 500 ng oligo-dT12-18, 10 mM dNTP, 40 units RNasin (Promega, Madison, Wis., U.S.A.), and 200 units of reverse transcriptase SUPERSCRIPT III™ (Invitrogen, Carlsbad, Calif., U.S.A.). cDNA synthesis was carried out at 50° C. for 1 hr followed by inactivation of reverse transcriptase at 70° C. for 15 min.
# Mouse macrophages (RAW 264.7) and […] preadipocytes (3T3-L1) were obtained from the University of North Carolina Tissue Culture Facility. Cell maintenance and 3T3-L1 preadipocyte differentiation is described herein below. For pharmacological experiments, cells were seeded at a density of 5×10^5 cells/well in a 12-well plate (Corning). Total RNA was isolated and reverse transcribed as described in the supplementary materials. TNFα, IL-1β, and IL-6 transcripts were quantitated in quadruplicate by real time polymerase chain reaction using TAQMAN® Gene Expression Assays (Applied Biosystems, Foster City, Calif., U.S.A.) in an ABI PRISM 7000 Sequence Detection System. TNFα, IL-1β, and IL-6 transcript levels were normalized to Glyceraldehyde-3-phosphate dehydrogenase (GAPDH).
# [1] = OR486 30 mg/kg i.p., relative to vehicle or carrageenan in the contralateral non-inflamed paw
# [2] = propranolol 3 mg/kg i.p. prior to OR486, relative to vehicle prior to OR486
# [3] = propranolol 3 mg/kg i.p. 10 minutes prior to OR486, relative to vehicle, phentolamine, SCH23390 or spiperone prior to OR486
# [4] = i.p. 10 min prior to OR486, ICI118,551 0.5 or 5.0 mg/kg, SR59230A 5 or 50 mg/kg, betaxolol 0.1, 1.0, 10 mg/kg, relative to vehicle prior to OR486
Molecule,"plasma levels of IL-6 (TNFα, IL-1β, and IL-6)","plasma levels of TNFα (TNFα, IL-1β, and IL-6)",paw withdrawal frequency to mechanical stimuli (25 g monofilament) (Sprague-Dawley rats),paw withdrawal latency to thermal stimuli (Sprague-Dawley rats),paw withdrawal threshold to mechanical stimuli (Sprague-Dawley rats),blockade of OR486-induced hyperalgesia / heightened pain sensitivity (Sprague-Dawley rats),"paw withdrawal frequency to mechanical stimuli, antagonist in the absence of OR486 (Sprague-Dawley rats)","paw withdrawal latency to radiant heat, antagonist in the absence of OR486 (Sprague-Dawley rats)","paw withdrawal threshold to mechanical stimuli, antagonist in the absence of OR486 (Sprague-Dawley rats)",other results
O=[N+]([O-])c1cc(O)c(O)c([N+](=O)[O-])c1 [OR486],elevated plasma levels,elevated plasma levels,increased paw withdrawal frequency,decreased paw withdrawal thresholds; also recorded: decreased paw withdrawal latency,significantly decreased paw withdrawal threshold,,,,,"plasma levels of IL-1β (TNFα, IL-1β, and IL-6; 30 mg/kg): elevated plasma levels; degree of mechanical and thermal hyperalgesia (Sprague-Dawley rats; OR486 30 mg/kg i.p. compared with carrageenan-induced inflammation of the hindpaw): comparable to that produced by carrageenan-induced inflammation; paw withdrawal frequency to 25 g monofilament, non-inflamed paw (Sprague-Dawley rats; [1]): increased paw withdrawal frequency; paw withdrawal latency to thermal stimuli, non-inflamed paw (Sprague-Dawley rats; [1]): decreased paw withdrawal latency; paw withdrawal threshold to mechanical stimuli, non-inflamed paw (Sprague-Dawley rats; [1]): decreased paw withdrawal threshold"
carrageenan,elevated levels,elevated levels,increased paw withdrawal frequency,decreased paw withdrawal latency,decreased paw withdrawal threshold,,,,,"plasma levels of IL-1β (TNFα, IL-1β, and IL-6): elevated levels"
CC(C)NCC(O)COc1cccc2ccccc12 (stereo not shown) [propranolol],,,,,,completely blocks,failed to affect,failed to affect,failed to affect,"plasma levels of IL-1β after OR486 (TNFα, IL-1β, and IL-6; [2]): normalized plasma levels; also recorded: decreased plasma levels; plasma levels of IL-6 after OR486 (TNFα, IL-1β, and IL-6; [2]): normalized plasma levels; also recorded: decreased plasma levels; plasma levels of TNFα after OR486 (TNFα, IL-1β, and IL-6; [2]): normalized plasma levels; also recorded: decreased plasma levels; paw withdrawal frequency to mechanical stimuli after OR486 (Sprague-Dawley rats; [3]): normalized; paw withdrawal latency to radiant heat after OR486 (Sprague-Dawley rats; [3]): normalized; paw withdrawal threshold to mechanical stimuli after OR486 (Sprague-Dawley rats; [3]): normalized"
"C[C@H](Cc1ccc2c(c1)OC(C(=O)[O-])(C(=O)[O-])O2)NC[C@H](O)c1cccc(Cl)c1.[Na+].[Na+] [CL316243, disodium (R,R)-5-(2-[{2-(3-chlorophenyl)-2-hydroxyethyl}-amino]propyl)-1,3-benzodioxole-2,2, dicarboxylate]",,,,,,,,,,increase in IL-6 mRNA levels in adipocytes (3T3-L1 adipocytes): 28 fold
O=C(c1cc(O)c(O)c([N+](=O)[O-])c1)c1ccccc1F [RO41-0960],a trend towards elevated levels,elevated plasma levels,increased paw withdrawal frequency,decreased paw withdrawal latency,decreased paw withdrawal threshold,,,,,"plasma proinflammatory cytokine production (TNFα, IL-1β, and IL-6; RO41-0960 30 mg/kg i.p. vs vehicle, 30 mg/kg): increased cytokine production; also recorded: increases plasma proinflammatory cytokine levels; increase in plasma levels of IL-1β (TNFα, IL-1β, and IL-6; RO41-0960 30 mg/kg i.p. vs vehicle, no statistical analysis (sample loss)): 4.5 fold; mechanical and thermal pain sensitivity (Sprague-Dawley rats; RO41-0960 30 mg/kg i.p.): decreased mechanical and thermal pain sensitivity"
O=C(CCCN1CCC2(CC1)C(=O)NCN2c1ccccc1)c1ccc(F)cc1 [spiperone],,,,,,failed to block,failed to affect,failed to affect,failed to affect,
CC(C)NCC(O)COc1ccc(CCOCC2CC2)cc1 (stereo not shown) [betaxolol],,,,,,,failed to affect,failed to affect,failed to affect,"paw withdrawal latency to radiant heat after OR486, selective βAR antagonists (Sprague-Dawley rats; i.p. 10 min prior to OR486, ICI118,551 5.0 mg/kg, SR59230A 5 or 50 mg/kg, betaxolol 0.1, 1.0, 10 mg/kg, relative to vehicle prior to OR486): failed to alter; paw withdrawal frequency to mechanical stimuli after OR486, selective βAR antagonists (Sprague-Dawley rats; [4]): failed to alter; paw withdrawal threshold to mechanical stimuli after OR486, selective βAR antagonists (Sprague-Dawley rats; [4]): failed to alter"
Cc1ccc(N(CC2=NCCN2)c2cccc(O)c2)cc1 [phentolamine],,,,,,failed to block,failed to affect,failed to affect,failed to affect,
